Publication PMC5562305, “Impact of novel palmitoylated prolactin-releasing peptide analogs on metabolic changes in mice with diet-induced obesity” (PLoS ONE, 2017)
Starred links: 1 amine or outer side, 2 acyl side, 3 side chain; linkers in the order of their positions; H or OH if unused. Residues, ends and D or L forms follow the SMILES beside them. Groups on a side chain read outwards from the residue. *: point of attachment. γGlu = O=C(O)[C@H](CCC(=O)[*:2])N[*:1]; Palmitoyl = CCCCCCCCCCCCCCCC(=O)*

Test system: c-Fos
Test: Fos immunohistochemistry in mouse brain
Type: in vivo
Details: overnight fasted mice, 5 mg/kg SC, 90 min after injection, n = 4, vs saline
Method: Ninety minutes after injection, the mice were deeply anesthetized with sodium pentobarbital (50 mg/kg, intraperitoneally) and perfused transcardially. The brains were withdrawn, and c-Fos immunoreactivity was determined as described in [19, 20].
For the immunohistochemical study, the c-Fos rabbit monoclonal antibody (Cell Signaling Technology, #2250S) detecting total level of endogenous c-Fos protein was used in final dilution (1:2000) for 48 h (4°C).

In the case of `CCCCCCCCCCCCCCCC(=O)N[C@@H](CCC(=O)NCCCC[C@H](NC(=O)[C@@H](NC(=O)[C@H](CCC(=O)O)NC(=O)[C@H](CCSC)NC(=O)[C@H](CO)NC(=O)[C@H](Cc1c[nH]cn1)NC(=O)[C@H](CCCNC(=N)N)NC(=O)[C@H](Cc1c[nH]cn1)NC(=O)[C@@H](NC(=O)[C@H](CCCNC(=N)N)NC(=O)[C@@H](N)CO)[C@@H](C)O)[C@@H](C)CC)C(=O)N[C@H](C(=O)N1CCC[C@H]1C(=O)N[C@@H](CC(=O)O)C(=O)N[C@H](C(=O)N[C@@H](CC(N)=O)C(=O)N1CCC[C@H]1C(=O)N[C@@H](C)C(=O)N[C@@H](Cc1c[nH]c2ccccc12)C(=O)N[C@@H](Cc1ccc(O)cc1)C(=O)N[C@@H](C)C(=O)N[C@@H](CO)C(=O)N[C@@H](CCCNC(=N)N)C(=O)NCC(=O)N[C@H](C(=O)N[C@@H](CCCNC(=N)N)C(=O)N1CCC[C@H]1C(=O)N[C@H](C(=O)NCC(=O)N[C@@H](CCCNC(=N)N)C(=O)N[C@@H](Cc1ccccc1)C(N)=O)C(C)C)[C@@H](C)CC)[C@@H](C)CC)[C@@H](C)O)C(=O)O` [analog 1] (H-SRTHRHSMEIK([γGlu-Palmitoyl])TPDINPAWYASRGIRPVGRF-NH2; N-terminus assumed), the “c-Fos immunoreactivity in Arc, PVN and DMN” value is reported as “significant increase”.
